Data as given in US20100267561A1, “HERBICIDAL PYRIDAZINONE DERIVATIVES” (priority 2007, published 2010).

Tests used:
Type in all cases: in vivo
[1] = system: wild mustard (Sinapis arvensis); experiment: Test C pre-/postemergence plant response
How it was run: (§1)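 Application timings covered preemergence and postemergence (1- to 4-leaf plants, 2 to 18 cm), using a non-phytotoxic solvent mixture that included a surfactant. Controlled-environment holding lasted 15 to 25 days before visual scoring, where 100 denotes complete control and 0 no effect.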

[2] = system: canarygrass (Phalaris minor); experiment: Test C pre-/postemergence plant response
How it was run: as §1

[3] = system: downy bromegrass (Bromus tectorum); experiment: Test C pre-/postemergence plant response
How it was run: as §1

[4] = system: spring barley (Hordeum vulgare); experiment: Test C pre-/postemergence plant response
How it was run: as §1

[5] = system: spring wheat (Triticum aestivum); experiment: Test C pre-/postemergence plant response
How it was run: as §1

[6] = system: annual bluegrass (Poa annua); experiment: Test C pre-/postemergence plant response
How it was run: as §1

[7] = system: windgrass (Apera spica-venti); experiment: Test C pre-/postemergence plant response
How it was run: as §1

[8] = system: blackgrass (Alopecurus myosuroides); experiment: Test C pre-/postemergence plant response
How it was run: as §1

[9] = system: pigweed (Amaranthus retroflexus); experiment: Test C pre-/postemergence plant response
How it was run: as §1

[10] = system: wild oat (Avena fatua); experiment: Test C pre-/postemergence plant response
How it was run: as §1

[11] = system: Italian ryegrass (Lolium multiflorum); experiment: Test C pre-/postemergence plant response
How it was run: as §1

[12] = system: winter wheat (Triticum aestivum); experiment: Test C pre-/postemergence plant response
How it was run: as §1

[13] = system: winter barley (Hordeum vulgare); experiment: Test C pre-/postemergence plant response
How it was run: as §1

[14] = system: green foxtail (Setaria viridis); experiment: Test C pre-/postemergence plant response
How it was run: as §1

[15] = system: canarygrass (Phalaris minor); experiment: Test B postemergence plant response; conditions: for Plant response rating, Canarygrass: Postemergence
How it was run: (§2)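 Following treatment of plants 2 to 18 cm high after emergence, pots were held under glass for 13 to 15 days; efficacy was then graded visually, 100 denoting complete control and a dash no test result.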

[16] = system: windgrass (Apera spica-venti); experiment: Test B postemergence plant response; conditions: for Plant response rating, Windgrass: Postemergence
How it was run: as §2

[17] = system: winter barley (Hordeum vulgare); experiment: Test B postemergence plant response; conditions: for Plant response rating, Barley: Postemergence
How it was run: as §2

[18] = Postemergence, 8 g ai/ha, scale 0 to 100, 0 no effect, 100 complete control
[19] = Postemergence, 16 g ai/ha, scale 0 to 100, 0 no effect, 100 complete control
[20] = Postemergence, 31 g ai/ha, scale 0 to 100, 0 no effect, 100 complete control
[21] = Postemergence, 62 g ai/ha, scale 0 to 100, 0 no effect, 100 complete control
[22] = Preemergence, 8 g ai/ha, scale 0 to 100 (0 no effect, 100 complete control)
[23] = Preemergence, 16 g ai/ha, scale 0 to 100 (0 no effect, 100 complete control)
[24] = Preemergence, 31 g ai/ha, scale 0 to 100 (0 no effect, 100 complete control)
[25] = Preemergence, 62 g ai/ha, scale 0 to 100, 0 no effect, 100 complete control
[26] = 8 g ai/ha, postemergence, 0-100 scale
[27] = 31 g ai/ha, scale 0 to 100, 0 no effect, 100 complete control

CCc1cc(-c2ccc(F)cc2)nn1-c1c(O)cnn(C)c1=O [Compound 25]
Plant response rating, Mustard, Wild [1, 18]: 0 | Plant response rating, Mustard, Wild [1, 19]: 0 | Plant response rating, Mustard, Wild [1, 20]: 0 | Plant response rating, Mustard, Wild [1, 21]: 0 | Plant response rating, Mustard, Wild [1, 22]: 0 | Plant response rating, Mustard, Wild [1, 23]: 0 | Plant response rating, Mustard, Wild [1, 24]: 0 | Plant response rating, Canarygrass [2, 18]: 0 | Plant response rating, Canarygrass [2, 19]: 0 | Plant response rating, Canarygrass [2, 20]: 0 | Plant response rating, Canarygrass [2, 21]: 40 | Plant response rating, Canarygrass [2, 22]: 0 | Plant response rating, Canarygrass [2, 23]: 0 | Plant response rating, Canarygrass [2, 24]: 10 | Plant response rating, Canarygrass [2, 25]: 35 | Plant response rating, Bromegrass, Downy [3, 18]: 0 | Plant response rating, Bromegrass, Downy [3, 19]: 0 | Plant response rating, Bromegrass, Downy [3, 20]: 0 | Plant response rating, Bromegrass, Downy [3, 21]: 20 | Plant response rating, Bromegrass, Downy [3, 22]: 20 | Plant response rating, Bromegrass, Downy [3, 23]: 20 | Plant response rating, Bromegrass, Downy [3, 24]: 20 | Plant response rating, Bromegrass, Downy [3, 25]: 35 | Plant response rating, Barley, Spring [4, 18]: 0 | Plant response rating, Barley, Spring [4, 19]: 0 | Plant response rating, Barley, Spring [4, 20]: 0 | Plant response rating, Barley, Spring [4, 22]: 0 | Plant response rating, Barley, Spring [4, 23]: 0 | Plant response rating, Barley, Spring [4, 24]: 0 | Plant response rating, Barley, Spring [4, 25]: 0 | Plant response rating, Wheat, Spring [5, 18]: 0 | Plant response rating, Wheat, Spring [5, 19]: 0 | Plant response rating, Wheat, Spring [5, 20]: 0 | Plant response rating, Wheat, Spring [5, 22]: 0 | Plant response rating, Wheat, Spring [5, 23]: 0 | Plant response rating, Wheat, Spring [5, 24]: 0 | Plant response rating, Wheat, Spring [5, 25]: 0 | Plant response rating, Bluegrass [6, 18]: 0 | Plant response rating, Bluegrass [6, 19]: 0 | Plant response rating, Bluegrass [6, 20]: 15 | Plant response rating, Bluegrass [6, 21]: 15 | Plant response rating, Bluegrass [6, 22]: 0 | Plant response rating, Bluegrass [6, 23]: 35 | Plant response rating, Bluegrass [6, 24]: 40 | Plant response rating, Bluegrass [6, 25]: 40 | Plant response rating, Windgrass [7, 18]: 0 | Plant response rating, Windgrass [7, 19]: 0 | Plant response rating, Windgrass [7, 20]: 35 | Plant response rating, Windgrass [7, 21]: 60 | Plant response rating, Windgrass [7, 22]: 50 | Plant response rating, Windgrass [7, 23]: 75 | Plant response rating, Blackgrass [8, 18]: 5 | Plant response rating, Blackgrass [8, 19]: 35 | Plant response rating, Blackgrass [8, 20]: 90 | Plant response rating, Blackgrass [8, 21]: 98 | Plant response rating, Blackgrass [8, 22]: 0 | Plant response rating, Blackgrass [8, 23]: 50 | Plant response rating, Blackgrass [8, 24]: 75 | Plant response rating, Blackgrass [8, 25]: 75 | Plant response rating, Pigweed [9, 18]: 0 | Plant response rating, Pigweed [9, 19]: 0 | Plant response rating, Pigweed [9, 20]: 0 | Plant response rating, Pigweed [9, 21]: 20 | Plant response rating, Pigweed [9, 22]: 0 | Plant response rating, Pigweed [9, 23]: 0 | Plant response rating, Pigweed [9, 24]: 0 | Plant response rating, Pigweed [9, 25]: 0 | Plant response rating, Oat, Wild [10, 18]: 0 | Plant response rating, Oat, Wild [10, 19]: 15 | Plant response rating, Oat, Wild [10, 20]: 90 | Plant response rating, Oat, Wild [10, 21]: 95 | Plant response rating, Oat, Wild [10, 22]: 15 | Plant response rating, Oat, Wild [10, 23]: 15 | Plant response rating, Oat, Wild [10, 24]: 40 | Plant response rating, Oat, Wild [10, 25]: 40 | Plant response rating, Ryegrass, Italian [11, 18]: 0 | Plant response rating, Ryegrass, Italian [11, 19]: 60 | Plant response rating, Ryegrass, Italian [11, 20]: 80 | Plant response rating, Ryegrass, Italian [11, 21]: 95 | Plant response rating, Ryegrass, Italian [11, 22]: 25 | Plant response rating, Ryegrass, Italian [11, 23]: 30 | Plant response rating, Ryegrass, Italian [11, 24]: 60 | Plant response rating, Ryegrass, Italian [11, 25]: 75 | Plant response rating, Wheat, Winter [12, 18]: 0 | Plant response rating, Wheat, Winter [12, 19]: 0 | Plant response rating, Wheat, Winter [12, 20]: 0 | Plant response rating, Wheat, Winter [12, 22]: 0 | Plant response rating, Wheat, Winter [12, 23]: 0 | Plant response rating, Wheat, Winter [12, 24]: 0 | Plant response rating, Wheat, Winter [12, 25]: 0 | Plant response rating, Barley, Winter [13, 18]: 0 | Plant response rating, Barley, Winter [13, 19]: 0 | Plant response rating, Barley, Winter [13, 20]: 0 | Plant response rating, Barley, Winter [13, 22]: 0 | Plant response rating, Barley, Winter [13, 23]: 0 | Plant response rating, Barley, Winter [13, 24]: 0 | Plant response rating, Barley, Winter [13, 25]: 0 | Plant response rating, Foxtail, Green [14, 18]: 70 | Plant response rating, Foxtail, Green [14, 19]: 80 | Plant response rating, Foxtail, Green [14, 20]: 95 | Plant response rating, Foxtail, Green [14, 21]: 98 | Plant response rating, Foxtail, Green [14, 22]: 15 | Plant response rating, Foxtail, Green [14, 23]: 25 | Plant response rating, Foxtail, Green [14, 24]: 100 | Plant response rating, Foxtail, Green [14, 25]: 100 | Canarygrass plant response rating [15, 26]: 0 | Plant response rating, Canarygrass ([15]; 16 g ai/ha, scale 0 to 100): 0 | Plant response rating, Canarygrass [15, 27]: 0 | Plant response rating, Canarygrass ([15]; 62 g ai/ha, scale 0 to 100): 10 | Windgrass plant response rating [16, 26]: 40 | Plant response rating, Windgrass ([16]; 16 g ai/ha, scale 0 to 100): 60 | Plant response rating, Windgrass [16, 27]: 60 | Plant response rating, Windgrass ([16]; 62 g ai/ha, scale 0 to 100): 98 | Barley plant response rating [17, 26]: 0 | Plant response rating, Barley ([17]; 16 g ai/ha, scale 0 to 100, 0 no effect, 100 complete control): 0 | Plant response rating, Barley [17, 27]: 0 | Plant response rating, Barley ([17]; 62 g ai/ha, scale 0 to 100): 0
